Patent US20160205934A1 (Rohm and Haas Company, priority 2013, published 2016)
Read-outs that look alike come from different tables or passages of the source.

Experiments:
Chlorella sp. ATCC 7516 = assay: Algal efficacy testing of dry paint films (modified ASTM 5589, 6-well plates); format: cell-based; conditions: 4 weeks; for inhibition at 1000 ppm: total conc 1000 ppm; for Total conc: total biocide conc in paint chosen as minimum inhibitory concentration (pass level 75% inhibition), or maximum tested where pass not reached
Experimental: (§1) The at least one phenylurea herbicide, (diuron, chlorotoluron, and/or isoproturon) was post added, as 33% active slurries, to a white, acrylic/silicone based outdoor paint free of biocides to give a total active ingredient concentration of 10000 and 1000 ppm respectively. These paints were then diluted with an antimicrobial free acrylic/silicone based paint and mixed to prepare targeted concentrations of antimicrobial compounds for the testing. The total biocides concentrations tested were 125, 250, 500, 1000, 2000 and 5000 ppm. After biocides addition or dilution, the paints were mixed 90 seconds with the horse power shaker (AXEL 75M3372/Agitateur SO-10MI) until uniformity was achieved. Paints containing different antimicrobial compounds at the same levels were mixed together in order to obtain the desired ratio of antimicrobial compounds. After one day, the paints were applied to Schleicher & Schuell filter paper at 280 μm wet film thickness and dried for 3 days at room temperature avoiding direct exposure to sunlight. Square discs (1.6 cm×1.6 cm) were cut out from each panel and were used as the substrate for algal efficacy tests. This sample size allowed for an agar border when the sample disc was placed into the well of the test plate.
(§2) Algal efficacy was tested according to modified ASTM 5589 which is a standard accelerated test method for determining resistance of various coatings (including paints) to algal defacement. To accommodate for high-throughput screening, this method was scaled down from petri dishes to 6-well plates. Bold Modified Basal Freshwater Nutrient Solution was used as growth medium. A single coated filter paper coupon was placed with a pair of sterile forceps at the center of the agar plug (on top) with the painted surface facing upwards. Algal inoculums were prepared by mixing equal concentrations (1×10^6 cfu/ml) and equal volumes of exponentially growing algae cultures.
(§3) Each well that contains a tested coupon was inoculated with 1750 μl of algal suspensions (1×10^6 cfu/ml) making sure that the whole surface (paint film as well as the agar surrounding it) was evenly covered. The plates were incubated at room temp (21° C.-25° C.) with cyclic exposure to light and dark phases, for a period of four weeks.
(§4) At the end of the four week incubation period, the samples were scored for percent inhibition regarding visible algal growth compared to the blank sample (0% inhibition).
(§5) The minimal targeted inhibition was set at 75%, meaning a coupon with at least 75% algal growth inhibition was considered as a pass.

[1] = system: Stichococcus bacillaris SAG 379-1a / CCAP 379/1a; assay: as above; format: cell-based; conditions: for Total conc: total biocide conc in paint chosen as minimum inhibitory concentration (pass level 75% inhibition), or maximum tested where pass not reached
Experimental: as §1, §2, §3, §4, §5

[2] = 672 h, visible algal growth vs blank
[3] = Stichococcus bacillaris, 672 h, Stichococcus, total conc 500 ppm, 4 weeks, visible algal growth vs blank, read-out: % inhibition

SMILES | inhibition at 1000 ppm (Chlorella sp. ATCC 7516; [2]) [%] | Total conc (Chlorella sp. ATCC 7516) [ppm] | inhibition at 500 ppm [1, 3] [%] | Total conc ([1]; Stichococcus, 4 weeks) [ppm] | inhibition at 500 ppm (Chlorella sp. ATCC 7516; 672 h, total conc 500 ppm, visible algal growth vs blank) [%] | inhibition at 500 ppm ([1]; Stichococcus bacillaris, 672 h) [%] | inhibition at 5000 ppm (Chlorella sp. ATCC 7516; 672 h, total conc 5000 ppm, visible algal growth vs blank) [%] | % inhibition (Chlorella sp. ATCC 7516; total conc 5000 ppm, visible algal growth vs blank) [%] | inhibition at 2000 ppm ([1]; Stichococcus bacillaris, 672 h) [%] | inhibition at 5000 ppm ([1]; Stichococcus bacillaris, 672 h) [%]
Cc1ccc(NC(=O)N(C)C)cc1Cl [Chlorotoluron, chlorotoluron] | 100 | 1000 | 75 | 500 | – | – | – | – | – | –
CN(C)C(=O)Nc1ccc(Cl)c(Cl)c1 [Diuron, diuron] | – | 500 | – | 500 | 90 | 95 | – | – | – | –
CC(C)c1ccc(NC(=O)N(C)C)cc1 [Isoproturon, isoproturon] | 100 | 1000 | 75 | 500 | – | – | – | – | – | –
O=c1[nH]c2c(c(=O)n1C1CCCCC1)CCC2 [Lenacil, 3-cyclohexyl-1,5,6,7-tetrahydrocyclopentapyrimidine-2,4(3H)-dione] | – | 5000 | – | – | – | – | 45 | 50 | 80 | 65
